{"source": "the supplement of paper PMC11208160", "data": [{"experiment": "recombinant barcode read abundance after kanamycin selection (control-corrected) (log10(CPM+1)); higher = more efficient recombination; sequences stand for … in AGTGCAGAGAAAATCGGCCAGTTTTCTCTGCCTGCAGTCCGCATGCCGT…AGATTTATGCAGCGGACTGCCTTTCTCCCAAAGTGATAAACCGGACAGTATCATGGACCGGTTTTCCCGGTAATCCGTATTTGCAAGGTTGGTTTCACT; site = the 11-nt target", "how_it_was_run": "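Reported as log10(CPM+1), each value stands for recombination efficiency. That efficiency is the averaged, control-corrected counts per million of barcodes found at recombinant junctions. Cells from a pooled E. coli library pairing targets with IS621 bridge RNA target-binding loops were plated twice on chloramphenicol/ampicillin LB agar (control) and twice on chloramphenicol/ampicillin/kanamycin with 0.1 mM IPTG.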", "values": [{"sequence": "TCCGATTCTTGGGTTCTAACCTGTTGCGT (site TCCGATTCTAC)", "recombinant barcode read abundance (log10)": 1.7}, {"sequence": "TCCGCTACTTGGGTTCTAACCTGTTGCCT (site TCCGCTACTAG)", "recombinant barcode read abundance (log10)": 0.0438}, {"sequence": "TCCGCTACTTGGGTTCTAACCTGTTGCCT (site TCCGCTCCTAG)", "recombinant barcode read abundance (log10)": 0.0689}, {"sequence": "TCCGCTACTTGGGTTCTAACCTGTTGCCT (site TCCGCTGCTAG)", "recombinant barcode read abundance (log10)": 0.0537}, {"sequence": "TCCGCTACTTGGGTTCTAACCTGTTGCCT (site TCCGCTTCTAG)", "recombinant barcode read abundance (log10)": 0.107}, {"sequence": "TCCGCTTCTTGGGTTCTAACCTGTTGCCT (site TCCGCTACTAG)", "recombinant barcode read abundance (log10)": 0.321}, {"sequence": "TCCGCTTCTTGGGTTCTAACCTGTTGCCT (site TCCGCTCCTAG)", "recombinant barcode read abundance (log10)": 0.259}, {"sequence": "TCCGCTTCTTGGGTTCTAACCTGTTGCCT (site TCCGCTGCTAG)", "recombinant barcode read abundance (log10)": 0.0858}, {"sequence": "TCCGCTTCTTGGGTTCTAACCTGTTGCCT (site TCCGCTTCTAG)", "recombinant barcode read abundance (log10)": 0.487}, {"sequence": "TCCGCTTCTTGGGTTCTAACCTGTTGCTT (site AATCGAGCTCC)", "recombinant barcode read abundance (log10)": 0.0408}, {"sequence": "TCCGCTTCTTGGGTTCTAACCTGTTGCTT (site TCCGCTTCTAA)", "recombinant barcode read abundance (log10)": 0.0659}, {"sequence": "TCCGGTACTTGGGTTCTAACCTGTTGCTT (site TCCAGTACTAA)", "recombinant barcode read abundance (log10)": 0.0783}, {"sequence": "TCCGGTACTTGGGTTCTAACCTGTTGCTT (site TCCGGTACTAA)", "recombinant barcode read abundance (log10)": 0.438}, {"sequence": "TCCTAACCTTGGGTTCTAACCTGTTGCCT (site TCCTAACCTAG)", "recombinant barcode read abundance (log10)": 0.454}, {"sequence": "TCCTAACCTTGGGTTCTAACCTGTTGCCT (site TCCTAATCTAT)", "recombinant barcode read abundance (log10)": 0.0117}, {"sequence": "TCCTAAGCTTGGGTTCTAACCTGTTGCGG (site TCCTAAGCTCC)", "recombinant barcode read abundance (log10)": 1.67}, {"sequence": "TCCTAAGCTTGGGTTCTAACCTGTTGCGG (site TGCTAAGCTCA)", "recombinant barcode read abundance (log10)": 0.276}, {"sequence": "TCCTAAGCTTGGGTTCTAACCTGTTGCTA (site TCCAAAGCTTA)", "recombinant barcode read abundance (log10)": 0.05}, {"sequence": "TCCTAAGCTTGGGTTCTAACCTGTTGCTA (site TCCCAAGCTTA)", "recombinant barcode read abundance (log10)": 0.227}, {"sequence": "TCCTAAGCTTGGGTTCTAACCTGTTGCTA (site TCCGAAGCTTA)", "recombinant barcode read abundance (log10)": 0.372}, {"sequence": "TCCTAAGCTTGGGTTCTAACCTGTTGCTA (site TCCTAAGCTTA)", "recombinant barcode read abundance (log10)": 0.161}, {"sequence": "TCCTAATCTTGGGTTCTAACCTGTTGCTT (site CGGGCTACTTG)", "recombinant barcode read abundance (log10)": 0.284}, {"sequence": "TCCTAATCTTGGGTTCTAACCTGTTGCTT (site TCCTAATCTAA)", "recombinant barcode read abundance (log10)": 0.111}, {"sequence": "TCCTATCCTTGGGTTCTAACCTGTTGCGA (site GTGGGAACTAA)", "recombinant barcode read abundance (log10)": 0.0465}, {"sequence": "TCCTATCCTTGGGTTCTAACCTGTTGCGA (site TCCTATCCTTC)", "recombinant barcode read abundance (log10)": 0.513}, {"sequence": "TCCTATGCTTGGGTTCTAACCTGTTGCCG (site GAAAGCTCTAC)", "recombinant barcode read abundance (log10)": 0.0567}, {"sequence": "TCCTATGCTTGGGTTCTAACCTGTTGCCG (site TCCTATGCTCG)", "recombinant barcode read abundance (log10)": 0.444}, {"sequence": "TCCTCGTCTTGGGTTCTAACCTGTTGCCT (site GCCTGGTCTAG)", "recombinant barcode read abundance (log10)": 0.00881}, {"sequence": "TCCTCGTCTTGGGTTCTAACCTGTTGCCT (site TCCTCGTCTAG)", "recombinant barcode read abundance (log10)": 0.669}, {"sequence": "TCCTGTACTTGGGTTCTAACCTGTTGCCT (site TCCTGTACTAG)", "recombinant barcode read abundance (log10)": 0.239}, {"sequence": "TCCTGTACTTGGGTTCTAACCTGTTGCCT (site TCCTGTCCTAT)", "recombinant barcode read abundance (log10)": 0.108}, {"sequence": "TCCTTAGCTTGGGTTCTAACCTGTTGCCG (site TCCTGAGCTCA)", "recombinant barcode read abundance (log10)": 0.155}, {"sequence": "TCCTTAGCTTGGGTTCTAACCTGTTGCCG (site TCCTTAGCTCG)", "recombinant barcode read abundance (log10)": 0.0503}, {"sequence": "TCGAACCCTTGGGTTCTAACCTGTTGCGG (site TCAAACCCTCC)", "recombinant barcode read abundance (log10)": 0.991}, {"sequence": "TCGAACCCTTGGGTTCTAACCTGTTGCGG (site TCCAACCCTCC)", "recombinant barcode read abundance (log10)": 0.168}, {"sequence": "TCGAACCCTTGGGTTCTAACCTGTTGCGG (site TCGAACCCTCC)", "recombinant barcode read abundance (log10)": 0.851}, {"sequence": "TCGAACCCTTGGGTTCTAACCTGTTGCGG (site TCTAACCCTCC)", "recombinant barcode read abundance (log10)": 0.0521}, {"sequence": "TCGAAGCCTTGGGTTCTAACCTGTTGCCT (site TCGAAACCTAG)", "recombinant barcode read abundance (log10)": 0.0823}, {"sequence": "TCGAAGCCTTGGGTTCTAACCTGTTGCCT (site TCGAACCCTAG)", "recombinant barcode read abundance (log10)": 0.207}, {"sequence": "TCGAAGCCTTGGGTTCTAACCTGTTGCCT (site TCGAAGCCTAG)", "recombinant barcode read abundance (log10)": 0.324}, {"sequence": "TCGAAGCCTTGGGTTCTAACCTGTTGCCT (site TCGAATCCTAG)", "recombinant barcode read abundance (log10)": 0.101}, {"sequence": "TCGAATTCTTGGGTTCTAACCTGTTGCCT (site TCGAATTCTAG)", "recombinant barcode read abundance (log10)": 0.109}, {"sequence": "TCGAATTCTTGGGTTCTAACCTGTTGCCT (site TCGATGTCTAG)", "recombinant barcode read abundance (log10)": 0.0943}, {"sequence": "TCGAGAGCTTGGGTTCTAACCTGTTGCCG (site TCGAGAGCTCG)", "recombinant barcode read abundance (log10)": 0.441}, {"sequence": "TCGAGAGCTTGGGTTCTAACCTGTTGCCG (site TCGAGAGCTTA)", "recombinant barcode read abundance (log10)": 0.203}, {"sequence": "TCGAGTCCTTGGGTTCTAACCTGTTGCCT (site TCGAGTACTAG)", "recombinant barcode read abundance (log10)": 0.766}, {"sequence": "TCGAGTCCTTGGGTTCTAACCTGTTGCCT (site TCGAGTCCTAG)", "recombinant barcode read abundance (log10)": 0.101}, {"sequence": "TCGAGTCCTTGGGTTCTAACCTGTTGCCT (site TCGAGTGCTAG)", "recombinant barcode read abundance (log10)": 0.179}, {"sequence": "TCGAGTCCTTGGGTTCTAACCTGTTGCCT (site TCGAGTTCTAG)", "recombinant barcode read abundance (log10)": 0.0383}, {"sequence": "TCGAGTTCTTGGGTTCTAACCTGTTGCCT (site TCGAGTACTAG)", "recombinant barcode read abundance (log10)": 0.0829}, {"sequence": "TCGAGTTCTTGGGTTCTAACCTGTTGCCT (site TCGAGTCCTAG)", "recombinant barcode read abundance (log10)": 0.0637}, {"sequence": "TCGAGTTCTTGGGTTCTAACCTGTTGCCT (site TCGAGTGCTAG)", "recombinant barcode read abundance (log10)": 0.0736}, {"sequence": "TCGAGTTCTTGGGTTCTAACCTGTTGCCT (site TCGAGTTCTAG)", "recombinant barcode read abundance (log10)": 0.174}, {"sequence": "TCGCACACTTGGGTTCTAACCTGTTGCTA (site TCGCACACTTA)", "recombinant barcode read abundance (log10)": 0.148}, {"sequence": "TCGCACACTTGGGTTCTAACCTGTTGCTA (site TCGCACTCTTA)", "recombinant barcode read abundance (log10)": 0.0853}, {"sequence": "TCGCCTGCTTGGGTTCTAACCTGTTGCCT (site TCGCCTACTAG)", "recombinant barcode read abundance (log10)": 0.282}, {"sequence": "TCGCCTGCTTGGGTTCTAACCTGTTGCCT (site TCGCCTGCTAG)", "recombinant barcode read abundance (log10)": 0.191}, {"sequence": "TCGCTAACTTGGGTTCTAACCTGTTGCCT (site GCGCTAACTAG)", "recombinant barcode read abundance (log10)": 0.145}, {"sequence": "TCGCTAACTTGGGTTCTAACCTGTTGCCT (site TCGCTAACTAG)", "recombinant barcode read abundance (log10)": 0.322}, {"sequence": "TCGGACCCTTGGGTTCTAACCTGTTGCGA (site TCGAACCCTTC)", "recombinant barcode read abundance (log10)": 1}, {"sequence": "TCGGACCCTTGGGTTCTAACCTGTTGCGA (site TCGCACCCTTC)", "recombinant barcode read abundance (log10)": 0.12}, {"sequence": "TCGGACCCTTGGGTTCTAACCTGTTGCGA (site TCGGACCCTTC)", "recombinant barcode read abundance (log10)": 2.73}, {"sequence": "TCGGACCCTTGGGTTCTAACCTGTTGCGA (site TCGTACCCTTC)", "recombinant barcode read abundance (log10)": 0.23}, {"sequence": "TCGGAGTCTTGGGTTCTAACCTGTTGCCG (site TCGGAGTCTCA)", "recombinant barcode read abundance (log10)": 0.0935}, {"sequence": "TCGGAGTCTTGGGTTCTAACCTGTTGCCG (site TCGGAGTCTCG)", "recombinant barcode read abundance (log10)": 1.17}, {"sequence": "TCGGAGTCTTGGGTTCTAACCTGTTGCGT (site TCGGAGTCTAA)", "recombinant barcode read abundance (log10)": 0.499}]}]}
